Among the data in patent EP4722205A1, “HETEROCYCLIC COMPOUND AND NOXIOUS ARTHROPOD-CONTROLLING COMPOSITION CONTAINING SAME” (Sumitomo Chemical Company, Limited, priority 2023, dated 2024) are mortality values, retold here.

Holding throughout (assay type): in vivo
In assay [1] the test system is cotton aphids (Aphis gossypii). In words: Test Method 1: foliar spray on cucumber seedling infested with cotton aphids (Formulation example 1). The settings on record: 120 h, spray 10 mL/seedling, examined after 5 days, 25°C, read-out: controlling value.
Assay [2] deals with cotton worm (Spodoptera litura). In words: Test Method 3: sprayed cabbage leaves fed to second instar cotton worm. To be noted: 120 h, second instar larvae, after 5 days, 25°C, read-out: mortality of insects. As for the experimental part:
(§1) The following tests in the test examples below were conducted at 25°C.
Cabbage (Brassicae oleracea) seedling (on the developmental stage of the second to third true leaf) is planted in a cup, and the diluted solutions are sprayed into the seedling at a ratio of 20 mL/seedling. Thereafter, the stem and leaf thereof are cut out and then is installed into a cup that is covered with filter paper on the bed of the cup. Five (5) cotton worm (Spodoptera litura) at the second instar larval stage are released into the cup. After 5 days, the number of the surviving insects is counted, and the mortality of insects is calculated by the following equation. [formula]

For assay [3], the system named is diamondback moth (Plutella xylostella). Description: Test Method 4: sprayed cabbage leaves fed to second instar diamondback moth. The settings on record: 120 h, second instar larvae, after 5 days, 25°C, read-out: mortality of insects. Here is the method: Next, an efficacy of the present compound on controlling harmful arthropods is shown by Test examples. The following tests in the test examples below were conducted at 25°C.
Test compounds are made to a formulation according to a similar method to that described in the Formulation example 1, and thereto is added water containing 0.03 v/v% of Shindain (registered trademark) to prepare a diluted solution containing a prescribed concentration of the test compound.
Cabbage (Brassicae oleracea) seedling (on the developmental stage of the second to third true leaf) is planted in a cup, and the diluted solutions are sprayed into the seedling at a ratio of 20 mL/seedling. Thereafter, the stem and leaf thereof are cut out and then is installed into a cup that is covered with filter paper on the bed of the cup. Five (5) diamondback moth (Plutella xylostella) at the second instar larval stage are released into the cup. After 5 days, the number of the surviving insects is counted, and the mortality of insects is calculated by the following equation. [formula]

For assay [4], the system named is cotton worm (Spodoptera litura). Description: Test Method 9: sprayed cabbage seedling, third instar cotton worm (Formulation example 5). The settings on record: 144 h, third instar larvae, after 6 days, 25°C, read-out: controlling value. As for the experimental part:
as §1
Cabbage (Brassicae oleracea) seedling (on the developmental stage of the third to fourth true leaf) is planted in a cup, and the diluted solutions are sprayed into the seedling at a ratio of 20 mL/seedling. Thereafter, ten (10) cotton worm (Spodoptera litura) at the third instar larval stage are released onto the seedling. After 6 days, the number of the surviving insects is counted, and the mortality of insects is calculated by the following equation. [formula]

Assay [5] relates to diamondback moth (Plutella xylostella). In words: Test Method 10: sprayed cabbage seedling, third instar diamondback moth (Formulation example 5). The settings on record: 144 h, third instar larvae, after 6 days, 25°C, read-out: controlling value. As for the experimental part: as §1
Cabbage (Brassicae oleracea) seedling (on the developmental stage of the third to fourth true leaf) is planted in a cup, and the diluted solutions are sprayed into the seedling at a ratio of 20 mL/seedling. Thereafter, ten (10) diamondback moth (Plutella xylostella) at the third instar larval stage are released onto the seedling. After 6 days, the number of the surviving insects is counted, and the mortality of insects is calculated by the following equation. [formula]

Assay [6] deals with cotton aphids (Aphis gossypii). Description: Test Method 11: foliar spray on cucumber seedling infested with cotton aphids (Formulation example 5). To be noted: 120 h, spray 10 mL/seedling, examined after 5 days, 25°C, read-out: controlling value.
Assay [7] concerns common house mosquitos (Culex pipiens pallens). Description: Test Method 12: mosquito larvae released into diluted solution. The settings on record: 24 h, last instar larvae, after 1 day, 25°C, read-out: controlling value. Here is the method: as §1
Into the diluted solution, 30 common house mosquitos (Culex pipiens pallens) at the last instar larval stage are released, and after 1 day, the state of the house mosquito larvae is examined, and the mortality of insects is calculated by the following equation. [formula]

As for `CCS(=O)(=O)c1c(C(=O)N(C)c2nc3cccc(F)c3s2)nc2ccc(I)cn12` [compound 22], the mortality at 500 ppm in assay [1] was not below 90%; in assay [2], not below 80%; in assay [3], not below 80%. Further, the mortality at 200 ppm in assay [4] was not below 80%; in assay [5], not below 80%; in assay [6], not below 90%. Moreover, the mortality at 50 ppm in assay [5] was not below 80%; in assay [6] it was not below 90%. In addition, the mortality at 3.5 ppm in assay [7] was not below 90%.
For `CCS(=O)(=O)c1c(C(=O)N(C)c2nc3ccc(F)cc3s2)nc2ccc(I)cn12` [compound 23], the mortality at 500 ppm in assay [1] was not below 90%; in assay [2], not below 80%; in assay [3] it was not below 80%. In addition, the mortality at 50 ppm in assay [4] is not below 80%; in assay [5], not below 80%; in assay [6] it was not below 90%. The mortality at 200 ppm is not below 80% in assay [4] and not below 90% in assay [6]. Also, in assay [7], the mortality at 3.5 ppm is not below 90%.
Turning to `CCS(=O)(=O)c1c(C(=O)N(C)c2nc3cc(Cl)ccc3s2)nc2ccc(I)cn12` [compound 29], the mortality at 500 ppm is not below 90% in assay [1], not below 80% in assay [2] and not below 80% in assay [3]. Moreover, the mortality at 50 ppm in assay [4] and in assay [5] was not below 80% each time. Further, the mortality at 200 ppm in assay [4] was not below 80%; in assay [5], not below 80%; in assay [6], not below 90%. For the same compound, the mortality at 3.5 ppm in assay [7] is not below 90%.
For `CCS(=O)(=O)c1c(C(=O)N(C)c2nc3ccccc3s2)nc2ccc(I)cn12` [compound 31], the mortality at 500 ppm in assay [1] was not below 90%; in assay [2], not below 80%; in assay [3], not below 80%. The mortality at 50 ppm is not below 80% in assay [4], not below 80% in assay [5] and not below 90% in assay [6]. In addition, the figures for the mortality at 200 ppm in assay [4], in assay [5] and in assay [6] were not below 80%, not below 80% and not below 90%, respectively. Also, the mortality at 3.5 ppm in assay [7] is not below 90%.
With `CCS(=O)(=O)c1c(C(=O)N(C)c2nc3c(F)cc(F)cc3s2)nc2ccc(I)cn12` [compound 35], the results for the mortality at 500 ppm in assay [1], in assay [2] and in assay [3] were not below 90%, not below 80% and not below 80%, respectively. In addition, the mortality at 50 ppm in assay [4] and in assay [5] was not below 80% each time. In addition, the mortality at 200 ppm in assay [4] and in assay [5] was not below 80% throughout. In addition, in assay [7], the mortality at 3.5 ppm was not below 90%.
For the compound `CCS(=O)(=O)c1c(C(=O)N(C)c2nc3ccc(F)cc3o2)nc2ccc(I)cn12` [compound 40], the mortality at 500 ppm in assay [1] is not below 90%; in assay [3], not below 80%. In addition, in assay [6], the mortality at 200 ppm is not below 90%. For the same compound, the mortality at 3.5 ppm in assay [7] is not below 90%.
On to `CCS(=O)(=O)c1c(C(=O)N(C)c2nc3cc(Cl)ccc3o2)nc2ccc(I)cn12` [compound 41], for which the mortality at 500 ppm in assay [1] was not below 90%; in assay [3], not below 80%. Also, the mortality at 50 ppm in assay [5] was not below 80%; in assay [6], not below 90%. Further, the mortality at 200 ppm in assay [5] is not below 80%; in assay [6] it was not below 90%. Besides, the mortality at 3.5 ppm in assay [7] was not below 90%.
Take `CCS(=O)(=O)c1c(C(=O)N(C)c2nc3cc(F)c(F)cc3o2)nc2ccc(I)cn12` [compound 42]: the mortality at 500 ppm in assay [1] was not below 90%; in assay [2] it was not below 80%. Besides, the mortality at 3.5 ppm in assay [7] is not below 90%.
Take `CCS(=O)(=O)c1cccnc1C(=O)N(C)c1nc2cc(C(F)(F)F)ccc2n1C` [compound 56]: the values for the mortality at 500 ppm in assay [1] and in assay [3] were not below 90% and not below 80%, respectively. For the same compound, in assay [7], the mortality at 3.5 ppm is not below 90%.
As to `CCSc1c(C(=O)N(C)c2nc3cc(F)ccc3n2C)nc2ccc(I)cn12` [compound 70], in assay [1], the mortality at 500 ppm was not below 90%. For the same compound, in assay [6], the mortality at 50 ppm was not below 90% and the mortality at 200 ppm is not below 90%. The mortality at 3.5 ppm in assay [7] is not below 90%.
Consider `CCS(=O)(=O)c1c(C(=O)N(C)c2nc3ncc(F)cc3s2)nc2ccc(I)cn12` [compound 76], for which the mortality at 500 ppm is not below 90% in assay [1], not below 80% in assay [2] and not below 80% in assay [3]. The mortality at 50 ppm in assay [4] and in assay [5] was not below 80% throughout. For the same compound, the mortality at 200 ppm in assay [4] was not below 80%; in assay [5] it was not below 80%; in assay [6], not below 90%. The mortality at 3.5 ppm in assay [7] is not below 90%.
Turning to `CCS(=O)(=O)c1cc(-c2ccccn2)cnc1C(=O)N(C)c1nc2cc(F)c(F)cc2s1` [compound 109], the results for the mortality at 500 ppm in assay [1], in assay [2] and in assay [3] were not below 90%, not below 80% and not below 80%, respectively. Moreover, the mortality at 50 ppm was not below 80% in assay [4], not below 80% in assay [5] and not below 90% in assay [6]. The results for the mortality at 200 ppm in assay [4], in assay [5] and in assay [6] were not below 80%, not below 80% and not below 90%, respectively. Moreover, the mortality at 3.5 ppm in assay [7] was not below 90%.
As for `CCS(=O)(=O)c1cc(-c2ccc(F)cn2)cnc1C(=O)N(C)c1nc2cc(F)c(F)cc2s1` [compound 110], the mortality at 500 ppm in assay [2] and in assay [3] was not below 80% throughout. Further, the mortality at 50 ppm in assay [4] and in assay [5] was not below 80% in each case. Moreover, the mortality at 200 ppm in assay [4] and in assay [5] was not below 80% each time. Further, the mortality at 3.5 ppm in assay [7] is not below 90%.
For the compound `CCS(=O)(=O)c1cc(OC(C)(C)C)cnc1C(=O)N(C)c1nc2cc(F)c(F)cc2s1` [compound 128], the mortality at 500 ppm is not below 90% in assay [1], not below 80% in assay [2] and not below 80% in assay [3]. The mortality at 50 ppm in assay [4] and in assay [5] was not below 80% throughout. Besides, the mortality at 200 ppm in assay [4] was not below 80%; in assay [5], not below 80%; in assay [6], not below 90%.
Take `CCS(=O)(=O)c1ccc(NC(=O)OC(C)(C)C)nc1C(=O)N(C)c1nc2cc(F)c(F)cc2s1` [compound 129]: the mortality at 500 ppm in assay [2] and in assay [3] was not below 80% each time. Moreover, the mortality at 200 ppm in assay [4] and in assay [5] was not below 80% throughout. For the same compound, in assay [7], the mortality at 3.5 ppm was not below 90%.
For the compound `CCS(=O)(=O)c1ccc(-n2cncn2)nc1C(=O)N(C)c1nc2cc(F)c(F)cc2s1` [compound 131], the mortality at 500 ppm in assay [2] and in assay [3] was not below 80% throughout. For the same compound, the mortality at 200 ppm in assay [4] and in assay [5] was not below 80% in each case. Further, in assay [5], the mortality at 50 ppm is not below 80%. Besides, the mortality at 3.5 ppm in assay [7] was not below 90%.
Regarding `CCS(=O)(=O)c1ccc(N(C)C)nc1C(=O)N(C)c1nc2cc(F)c(F)cc2s1` [compound 135], the mortality at 500 ppm in assay [2] and in assay [3] was not below 80% throughout. Besides, the values for the mortality at 50 ppm in assay [5] and in assay [6] were not below 80% and not below 90%, respectively. Also, the mortality at 200 ppm in assay [5] was not below 80%; in assay [6], not below 90%. Moreover, the mortality at 3.5 ppm in assay [7] was not below 90%.
As for `CCS(=O)(=O)c1ccc(NCCCN(C)C)nc1C(=O)N(C)c1nc2cc(F)c(F)cc2s1` [compound 136], in assay [3], the mortality at 500 ppm is not below 80%. Further, the mortality at 200 ppm in assay [5] was not below 80%. Besides, the mortality at 3.5 ppm in assay [7] is not below 90%.
With `CCS(=O)(=O)c1c(C(=O)N(C)c2nc3cc(F)c(F)cc3s2)nn(C)c1C1CC1` [compound 144], the mortality at 500 ppm in assay [1] was not below 90%; in assay [2] it was not below 80%; in assay [3] it was not below 80%. Besides, the mortality at 50 ppm in assay [5] was not below 80%. Besides, the mortality at 200 ppm in assay [5] is not below 80%; in assay [6], not below 90%. Further, the mortality at 3.5 ppm in assay [7] is not below 90%.
